Measured values as given in paper PMC5574958, “Radiosynthesis and Preclinical Evaluation of [^18F]F-DPA, A Novel Pyrazolo[1,5a]pyrimidine Acetamide TSPO Radioligand, in Healthy Sprague Dawley Rats” (Molecular Imaging and Biology, 2017).

Assay: Plasma protein binding (ultrafiltration of plasma after tracer injection)
Assay type: in vivo, Sprague Dawley rats
Details: 15 min after injection, 30 kDa ultrafiltration, n = 3
Procedure: After 15 min, the animals were sacrificed and the blood was collected into Li-heparin tubes and centrifuged (3000×g, 10 min). A 10-μl aliquot of the plasma was spotted onto a TLC plate; following this, the remaining plasma was filtered by ultrafiltration using Microsep 30K Omega (Pall Life Sciences, Mexico) with a cut-off of 30 kDa. A 10-μl aliquot of the resulting supernatant was also spotted onto the TLC plate. The plates were exposed onto an imaging plate (Fuji BAS Imaging Plate TR2025, Fuji Photo Film Co., Ltd., Tokyo, Japan) for approximately two half-lives of fluorine-18 (3.5 to 4 h). After the exposure, the imaging plates were scanned using a BAS-5000 reader (Fuji, Japan) with a resolution of 50 μm and the saved images were analyzed using TINA software (version 2.10 g, Raytest, Isotopenmessgeräte, GmbH, Straubenhardt, Germany).

## CCN(CC)C(=O)Cc1c(-c2ccc([18F])cc2)nn2c(C)cc(C)nc12 [[^18F]F-DPA]
  Fraction of radioactivity unbound to the plasma proteins: 6.6 ± 3.1%
